Test results reported in PubChem BioAssay (NCI).
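Five concentrations, 48 hours, 96-well plates. TGI: concentration producing complete growth inhibition.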

Experiments:
Test in all cases: NCI tumour cell line growth inhibition, 48 h
786-0 renal = system: 786-0 renal
A498 renal = system: A498 renal
A549 NSCLC = system: A549 NSCLC
ACHN renal = system: ACHN renal
CAKI-1 renal = system: CAKI-1 renal
CCRF-CEM leukemia = system: CCRF-CEM leukemia
COLO 205 colon = system: COLO 205 colon
DLD-1 colon = system: DLD-1 colon
DMS 114 small cell lung = system: DMS 114 small cell lung
DMS 273 small cell lung = system: DMS 273 small cell lung
EKVX NSCLC = system: EKVX NSCLC
HCC-2998 colon = system: HCC-2998 colon
HCT-116 colon = system: HCT-116 colon
HCT-15 colon = system: HCT-15 colon
HL-60(TB) leukemia = system: HL-60(TB) leukemia
HOP-18 NSCLC = system: HOP-18 NSCLC
HOP-62 NSCLC = system: HOP-62 NSCLC
HOP-92 NSCLC = system: HOP-92 NSCLC
HT29 colon = system: HT29 colon
IGROV1 ovarian = system: IGROV1 ovarian
K-562 leukemia = system: K-562 leukemia
KM20L2 colon = system: KM20L2 colon
LOX IMVI melanoma = system: LOX IMVI melanoma
LXFL 529 NSCLC = system: LXFL 529 NSCLC
M14 melanoma = system: M14 melanoma
M19-MEL melanoma = system: M19-MEL melanoma
MOLT-4 leukemia = system: MOLT-4 leukemia
NCI-H23 lung = system: NCI-H23 lung
NCI-H460 lung = system: NCI-H460 lung
OVCAR-3 ovarian = system: OVCAR-3 ovarian
OVCAR-4 ovarian = system: OVCAR-4 ovarian
OVCAR-8 ovarian = system: OVCAR-8 ovarian
RPMI-8226 leukemia = system: RPMI-8226 leukemia
RXF 393 renal = system: RXF 393 renal
SF-295 CNS = system: SF-295 CNS
SF-539 CNS = system: SF-539 CNS
SK-MEL-28 melanoma = system: SK-MEL-28 melanoma
SK-MEL-5 melanoma = system: SK-MEL-5 melanoma
SK-OV-3 ovarian = system: SK-OV-3 ovarian
SN12C renal = system: SN12C renal
SNB-19 CNS = system: SNB-19 CNS
SNB-75 CNS = system: SNB-75 CNS
SNB-78 CNS = system: SNB-78 CNS
SW-620 colon = system: SW-620 colon
TK-10 renal = system: TK-10 renal
U251 CNS = system: U251 CNS
UACC-257 melanoma = system: UACC-257 melanoma
UACC-62 melanoma = system: UACC-62 melanoma
XF 498 CNS = system: XF 498 CNS
MALME-3M melanoma = system: MALME-3M melanoma
NCI-H226 lung = system: NCI-H226 lung
NCI-H522 lung = system: NCI-H522 lung
OVCAR-5 ovarian = system: OVCAR-5 ovarian
RXF-631 renal = system: RXF-631 renal
SF-268 CNS = system: SF-268 CNS
SK-MEL-2 melanoma = system: SK-MEL-2 melanoma
SR leukemia = system: SR leukemia
UO-31 renal = system: UO-31 renal

Measured: TGI

O=C(O)CCC1CCc2cccc(OCC(=O)O)c2C1=O (stereo not given)
not listed: MALME-3M melanoma | NCI-H226 lung | NCI-H522 lung | OVCAR-5 ovarian | RXF-631 renal | SF-268 CNS | SK-MEL-2 melanoma | SR leukemia | UO-31 renal
> 100 µM: all other assays above

O=[N+]([O-])c1ccc(/C(Cl)=C/c2ccc(/C=C(\Cl)c3ccc([N+](=O)[O-])cc3[N+](=O)[O-])cc2)c([N+](=O)[O-])c1
not listed: CCRF-CEM leukemia | HOP-18 NSCLC | K-562 leukemia | KM20L2 colon | OVCAR-3 ovarian | SNB-19 CNS | XF 498 CNS
> 100 µM: all other assays above
